Laboratory results: patent publication US20250320565A1, “DETECTING ANTIBIOTIC AND/OR CHEMICAL USE IN AQUATIC ANIMALS USING EPIGENETIC MEANS” (Evonik Operations GmbH, priority 2022, published 2025)

Tested on: marble crayfish
Test: DNA methylation analysis (Agilent Sure Select Methyl-Seq) of abdominal tissue genomic DNA after antibiotic administration in feed
Type: in vivo
Details: for number of DNA segments with significant differences between the control and the treated animals: Kruskal Wallis test, p<0.05, CpGs with at least 10 reads, average methylation <0.2 or >0.8 filtered out
Procedure: Marble crayfish collected from a population at Lake Reilinger, Germany were collected for the experiment and reared from juveniles in the laboratory. A total of 30 adult marbled crayfish were reared in one of 5 treatments with replicates as outlined in Table 1: • 1) Control—no antibiotic treatment • 2) TetraA—Acute tetracycline administration at 10 mg/kg of feed for 7 days • 3) TetraB—Prophylactic tetracycline administration at 5 mg/kg of feed for 42 days • 4) NorA—administered at 10 mg/kg of feed for 7 days • 5) NorB—administered at 5 mg/kg of feed for 28 days
All other rearing variables were kept consistent for all treatment groups. Crayfish were reared in plastic containers with 20° C. tap water, which was replaced every two weeks, exposed to natural day-night light rhythms and daily feeding.
A subset of abdominal tissue genomic DNA samples (Table 1) was utilized for analysis of the Agilent Sure Select Methyl-Seq Assay. Abdominal tissue was extracted from marble crayfish directly after treatment duration, DNA was then extracted as previously described (Tönges et al, 2021).
Library preparation was carried out as described in the Agilent's Sure Select Methyl-Seq Target Enrichment System for Illumina Multiplexed Sequencing Protocol (version E0, April 2018) to specifically analyze 361 genes. These genes were previously characterized as variably methylated genes in the marble crayfish genome, showing differential site-specific methylation patterns in marble crayfish from different wild populations (Gatzmann et al., 2018; Tönges et al., 2021b).
Quality controls were performed, and sample concentrations were measured on a 2,200 TapeStation (Agilent). Multiplexed samples were submitted to the DKFZ High Throughput Sequencing core facility and sequenced on a HiSeq system (Illumina). For data analysis, the 361 sequenced genes were mapped to the bisulfite sequencing datasets of the entire […] genome (Gatzmann et al., 2018; Xi and Li 2009).
To identify antibiotic-specific methylation ratios in genomic DNA from abdominal tissue, the average methylation of each sample within 1 kb of DNA segments was calculated.
The data sets of the 1754 DNA segments were further analyzed and only the CpG positions covered in all samples with at least 10 reads were used. In addition, the CpGs that were either completely methylated or unmethylated (average methylation <0.2 or >0.8) were filtered out.
The DNA segments of the PCA were further analyzed and only the CpG positions that have at least 10 reads in all samples were reused. Furthermore, the CpGs that are completely unmethylated or methylated (average methylation <0.2 or >0.8) were filtered out.

[1] = NorB: 5 mg/kg of feed for 28 days, compared with control and NorA
[2] = control vs the two treatment groups, average methylation

| SMILES | number of DNA segments with significant differences between the control and the treated animals | average methylation rates of eight CpGs of gene Scaffold_52370: 13110767-13110901 (NorA: 10 mg/kg of feed for 7 days, compared with control) | methylation rates of eight CpGs of gene Scaffold_36323: 7555-7623 [1] | methylation ratios of eight CpGs of gene Scaffold_52370: 13110767-13110901 [1] | PCA separation between treated and untreated samples and between the two treatment groups (PCA of differentially methylated DNA segments) | effect size Cohen's d of all other DNA segments (very small effect) [2] | number of DNA segments showing a small effect (Cohen's d>0.2) [2] | analysis of DMRs, treatment groups vs control (p>0.05) |
| --- | --- | --- | --- | --- | --- | --- | --- | --- |
| CCn1cc(C(=O)O)c(=O)c2cc(F)c(N3CCNCC3)cc21 [norfloxacin] | 71 | no significant difference | higher methylation rates in all CpGs | higher methylation ratios of all CpGs | robust separation | < 0.02 | 4 | no significant differences |
| CN(C)[C@@H]1C(O)=C(C(N)=O)C(=O)[C@@]2(O)C(O)=C3C(=O)c4c(O)cccc4[C@@](C)(O)[C@H]3C[C@@H]12 [tetracycline] | 432 | – | – | – | – | – | – | – |
